Activity calls are given as the source filed them.
Legend:
[1] = test system: OCI-AML2; experiment: Cytotoxicity against human OCI-AML2 cells after 72 hrs by MTS assay; type: functional, cell-based
[2] = test system: MDA-MB-468; experiment: Cytotoxicity against human MDA-MB-468 cells after 72 hrs by MTS assay; type: functional, cell-based
[3] = target: Signal transducer and activator of transcription 3 (Homo sapiens) (UniProt P40763); experiment: Displacement of FAM-GpYLPQTV-NH2 from full-length Stat3 SH2 domain (unknown origin) up to 400 uM by fluorescence polarization
Signal transducer and activator of transcription 3 (Homo sapiens), sequence (P40763 whole entry, the tested form may be a part): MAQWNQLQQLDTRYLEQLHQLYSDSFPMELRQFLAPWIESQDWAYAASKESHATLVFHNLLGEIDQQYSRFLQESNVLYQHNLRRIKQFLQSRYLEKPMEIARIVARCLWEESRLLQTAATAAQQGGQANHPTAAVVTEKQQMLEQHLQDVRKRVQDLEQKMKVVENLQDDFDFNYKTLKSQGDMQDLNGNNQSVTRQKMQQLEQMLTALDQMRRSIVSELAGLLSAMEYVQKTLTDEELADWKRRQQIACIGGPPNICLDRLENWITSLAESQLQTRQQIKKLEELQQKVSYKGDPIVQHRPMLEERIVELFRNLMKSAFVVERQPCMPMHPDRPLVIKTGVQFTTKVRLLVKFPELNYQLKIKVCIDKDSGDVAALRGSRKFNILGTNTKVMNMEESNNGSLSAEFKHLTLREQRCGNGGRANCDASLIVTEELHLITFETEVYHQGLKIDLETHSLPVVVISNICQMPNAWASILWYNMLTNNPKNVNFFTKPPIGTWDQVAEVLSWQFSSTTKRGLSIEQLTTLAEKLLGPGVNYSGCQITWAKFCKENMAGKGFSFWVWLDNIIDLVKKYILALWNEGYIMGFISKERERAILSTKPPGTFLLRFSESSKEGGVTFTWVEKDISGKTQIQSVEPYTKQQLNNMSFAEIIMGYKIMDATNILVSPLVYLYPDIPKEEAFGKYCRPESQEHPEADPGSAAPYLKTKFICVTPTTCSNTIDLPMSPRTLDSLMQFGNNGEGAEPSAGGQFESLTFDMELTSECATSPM

[4] = test system: DU-145; experiment: Cytotoxicity against human DU145 cells after 72 hrs by MTS assay; type: functional, cell-based

Fc1ccc(Nc2nc(NCc3ccc(C4CCCCC4)cc3)nc3c2ncn3CCc2nnn[nH]2)cc1
inactive: Activity [1] | Activity [2] | inhibition [3] | Activity [4]

CC(=O)OCOC(=O)Cn1cnc2c(NCc3ccco3)nc(NCc3ccc(C4CCCCC4)cc3)nc21
inactive: Activity [1] | Activity [2] | Activity [4]

CC(=O)OCOC(=O)Cn1cnc2c(NCCC(C)C)nc(NCc3ccc(C4CCCCC4)cc3)nc21
inactive: Activity [1] | Activity [2] | Activity [4]

O=C(Nc1nc(N2CCOCC2)c2ncn(CCc3nnn[nH]3)c2n1)C1CCCCC1
inactive: Activity [1] | Activity [2] | Activity [4]

CC(C)CCNc1nc(NCc2ccc(C3CCCCC3)cc2)nc2c1ncn2CCOS(N)(=O)=O
inactive: Activity [1] | Activity [2] | Activity [4]

CC(C)(C)C(=O)OCOC(=O)Cn1cnc2c(N3CCOCC3)nc(NC(=O)C3CCCCC3)nc21
inactive: Activity [1] | Activity [2] | Activity [4]

NS(=O)(=O)OCCn1cnc2c(N3CCOCC3)nc(NCc3ccc(C4CCCCC4)cc3)nc21
inactive: Activity [1] | Activity [2] | Activity [4]

CCOC(=O)Cn1cnc2c(N3CCOCC3)nc(NC(=O)C3CCCCC3)nc21
inactive: Activity [1] | Activity [2] | Activity [4]

CC(C)(C)C(=O)OCOC(=O)Cn1cnc2c(NCc3ccco3)nc(NCc3ccc(C4CCCCC4)cc3)nc21
inactive: Activity [1] | Activity [2] | Activity [4]

CC(C)(C)C(=O)OCOC(=O)Cn1cnc2c(Oc3ccc([N+](=O)[O-])cc3)nc(NCc3ccc(C4CCCCC4)cc3)nc21
inactive: Activity [1] | Activity [2] | Activity [4]

NS(=O)(=O)OCCn1cnc2c(Oc3ccc([N+](=O)[O-])cc3)nc(NCc3ccc(C4CCCCC4)cc3)nc21
inactive: Activity [1] | Activity [2] | Activity [4]

CCOC(=O)Cn1cnc2c(NCc3ccco3)nc(NCc3ccc(C4CCCCC4)cc3)nc21
inactive: Activity [1] | Activity [2] | Activity [4]

NS(=O)(=O)OCCn1cnc2c(N3CCOCC3)nc(NC(=O)C3CCCCC3)nc21
inactive: Activity [1] | Activity [2] | inhibition [3] | Activity [4]

CC(C)(C)C(=O)OCOC(=O)Cn1cnc2c(NC3CCCC3)nc(NCc3ccc(C4CCCCC4)cc3)nc21
inactive: Activity [1] | Activity [2] | Activity [4]

CC(=O)OCOC(=O)Cn1cnc2c(NC3CCCC3)nc(NCc3ccc(C4CCCCC4)cc3)nc21
inactive: Activity [1] | Activity [2] | Activity [4]

c1coc(CNc2nc(NCc3ccc(C4CCCCC4)cc3)nc3c2ncn3CCc2nnn[nH]2)c1
inactive: Activity [1] | Activity [2] | inhibition [3] | Activity [4]

CCOC(=O)Cn1cnc2c(Oc3ccc([N+](=O)[O-])cc3)nc(NCc3ccc(C4CCCCC4)cc3)nc21
inactive: Activity [1] | Activity [2] | Activity [4]

CC(=O)OCOC(=O)Cn1cnc2c(NCC(C)C)nc(NCc3ccc(C4CCCCC4)cc3)nc21
inactive: Activity [1] | Activity [2] | Activity [4]

CC(=O)OCOC(=O)Cn1cnc2c(N3CCOCC3)nc(NC(=O)C3CCCCC3)nc21
inactive: Activity [1] | Activity [2] | Activity [4]

CC(C)CNc1nc(NCc2ccc(C3CCCCC3)cc2)nc2c1ncn2CC(=O)OCOC(=O)C(C)(C)C
inactive: Activity [1] | Activity [2] | Activity [4]

CCOC(=O)Cn1cnc2c(N3CCOCC3)nc(NCc3ccc(C4CCCCC4)cc3)nc21
inactive: Activity [1] | Activity [2] | Activity [4]

CC(C)(C)C(=O)OCOC(=O)Cn1cnc2c(Nc3ccc(F)cc3)nc(NCc3ccc(C4CCCCC4)cc3)nc21
inactive: Activity [1] | Activity [2] | inhibition [3] | Activity [4]

CCOC(=O)Cn1cnc2c(NC3CCCC3)nc(NCc3ccc(C4CCCCC4)cc3)nc21
inactive: Activity [1] | Activity [2] | Activity [4]

O=[N+]([O-])c1ccc(Oc2nc(NCc3ccc(C4CCCCC4)cc3)nc3c2ncn3CCc2nnn[nH]2)cc1
inactive: Activity [1] | Activity [2] | Activity [4]

NS(=O)(=O)OCCn1cnc2c(NCc3ccco3)nc(NCc3ccc(C4CCCCC4)cc3)nc21
inactive: Activity [1] | Activity [2] | Activity [4]

CC(C)CCNc1nc(NCc2ccc(C3CCCCC3)cc2)nc2c1ncn2CCc1nnn[nH]1
inactive: Activity [1] | Activity [2] | Activity [4]

NS(=O)(=O)OCCn1cnc2c(NC3CCCC3)nc(NCc3ccc(C4CCCCC4)cc3)nc21
inactive: Activity [1] | Activity [2] | Activity [4]

c1cc(C2CCCCC2)ccc1CNc1nc(N2CCOCC2)c2ncn(CCc3nnn[nH]3)c2n1
inactive: Activity [1] | Activity [2] | Activity [4]

CC(=O)OCOC(=O)Cn1cnc2c(N3CCOCC3)nc(NCc3ccc(C4CCCCC4)cc3)nc21
inactive: Activity [1] | Activity [2] | Activity [4]

CC(C)CNc1nc(NCc2ccc(C3CCCCC3)cc2)nc2c1ncn2CCOS(N)(=O)=O
inactive: Activity [1] | Activity [2] | Activity [4]

CCOC(=O)Cn1cnc2c(NCC(C)C)nc(NCc3ccc(C4CCCCC4)cc3)nc21
inactive: Activity [1] | Activity [2] | Activity [4]

c1cc(C2CCCCC2)ccc1CNc1nc(NC2CCCC2)c2ncn(CCc3nnn[nH]3)c2n1
inactive: Activity [1] | Activity [2] | Activity [4]

CC(=O)OCOC(=O)Cn1cnc2c(Oc3ccc([N+](=O)[O-])cc3)nc(NCc3ccc(C4CCCCC4)cc3)nc21
inactive: Activity [1] | Activity [2] | Activity [4]

CC(=O)OCOC(=O)Cn1cnc2c(Nc3ccc(F)cc3)nc(NCc3ccc(C4CCCCC4)cc3)nc21
inactive: Activity [1] | Activity [2] | inhibition [3] | Activity [4]

CC(C)CCNc1nc(NCc2ccc(C3CCCCC3)cc2)nc2c1ncn2CC(=O)OCOC(=O)C(C)(C)C
inactive: Activity [1] | Activity [2] | Activity [4]

CCOC(=O)Cn1cnc2c(NCCC(C)C)nc(NCc3ccc(C4CCCCC4)cc3)nc21
inactive: Activity [1] | Activity [2] | Activity [4]

CC(C)CNc1nc(NCc2ccc(C3CCCCC3)cc2)nc2c1ncn2CCc1nnn[nH]1
inactive: Activity [1] | Activity [2] | Activity [4]

CC(C)(C)C(=O)OCOC(=O)Cn1cnc2c(N3CCOCC3)nc(NCc3ccc(C4CCCCC4)cc3)nc21
inactive: Activity [1] | Activity [2] | Activity [4]

Reference: ChEMBL document CHEMBL3124828, “A 2,6,9-hetero-trisubstituted purine inhibitor exhibits potent biological effects against multiple myeloma cells” (Bioorg Med Chem, 2013)
